# Assay results reported in patent publication US8501732B2, “Aminomethyl quinolone compounds” (Hoffmann-La Roche Inc., priority 2011, dated 2013).
# Structures can show the parent of a compound that is named as a salt.
# Molecular target: JNK1 (Homo sapiens (Human), UniProt P45983)
# Experiment: In Vitro JNK1 Assay (TR-FRET, phosphorylation of GST-c-Jun)
# Format: biochemical
# Conditions: not given
# Method: Phosphorylation of GST-c-Jun protein (amino acid residues 1-79) was measured as JNK1 activity. […] The reaction buffer contained 50 mM HEPES, pH […], 1 mM DTT, 0.1 mM Na3VO4 and 0.2 mg/mL BSA. After 30 min. incubation at room temperature, the reaction was terminated by adding buffer containing 8 mM EDTA and a polyclonal anti-phospho-c-Jun antibody (Cell Signaling #9261L), followed by an additional incubation of 30 min. at room temperature. […] Time-resolved Fluorescence Resonance Energy Transfer (TR-FRET) signals were measured 1 hr. later on the EnVision reader (Perkin Elmer). Compound potency was assessed at 10 serially diluted concentrations. Percentage of inhibition at each concentration was determined to generate an IC50 value for each compound.
# JNK1, sequence (P45983 whole entry): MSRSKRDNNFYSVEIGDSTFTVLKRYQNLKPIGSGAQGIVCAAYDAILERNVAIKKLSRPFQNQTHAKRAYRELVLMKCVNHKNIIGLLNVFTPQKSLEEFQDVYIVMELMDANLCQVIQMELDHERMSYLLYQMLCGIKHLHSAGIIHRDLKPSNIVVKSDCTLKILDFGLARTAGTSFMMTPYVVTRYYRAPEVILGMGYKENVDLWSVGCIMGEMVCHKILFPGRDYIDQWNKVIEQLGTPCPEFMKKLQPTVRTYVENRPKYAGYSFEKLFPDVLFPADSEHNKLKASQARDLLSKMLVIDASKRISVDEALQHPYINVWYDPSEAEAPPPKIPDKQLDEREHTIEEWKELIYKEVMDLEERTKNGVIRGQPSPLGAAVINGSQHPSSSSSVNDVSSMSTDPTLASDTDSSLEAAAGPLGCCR
row,Compound,IC50 [nM]
1,"O=C(NCc1cn(-c2ccccc2)c2cc(Cl)ccc2c1=O)NC1CCN(C(=O)Oc2ccccc2)CC1 [Example I-193, 4-[3-(7-Chloro-4-oxo-1-phenyl-1,4-dihydro-quinolin-3-ylmethyl)-ureido]-piperidine-yl-carboxylic acid phenyl ester]",180
2,"COC(=O)c1c(CNC(=O)Oc2ccccc2)c(=O)c2ccc(Cl)cc2n1-c1ccccc1 [Example I-210, 7-Chloro-4-oxo-3-(phenoxycarbonylamino-methyl)-1-phenyl-1,4-dihydro-quinoline-2-carboxylic acid methyl ester]",1100

# Same assay, conditions: 0.2 nM active JNK1 kinase, 26.7 nM GST-c-Jun, 2 μM ATP, 30 min at room temperature
row,Compound,IC50 [nM]
1,"O=C(NCc1c(-c2ncco2)n(-c2ccccc2)c2cc(Cl)ccc2c1=O)c1ccn(Cc2ccccc2)c(=O)c1 [Example I-1, 1-Benzyl-2-oxo-1,2-dihydro-pyridine-4-carboxylic acid (7-chloro-2-oxazol-2-yl-4-oxo-1-phenyl-1,4-dihydro-quinolin-3-ylmethyl)-amide]",1
2,"O=C(NCc1c(-c2ncco2)n(-c2ccccc2)c2cc(Cl)ccc2c1=O)c1ccnc(N2CCOCC2)c1 [Example I-2, N-(7-Chloro-2-oxazol-2-yl-4-oxo-1-phenyl-1,4-dihydro-quinolin-3-ylmethyl)-2-morpholin-4-yl-isonicotinamide]",7
3,"O=C(NCc1c(-c2ncco2)n(-c2ccccc2)c2cc(Cl)ccc2c1=O)c1ccc(N2CCOCC2)nc1 [Example I-3, N-(7-Chloro-2-oxazol-2-yl-4-oxo-1-phenyl-1,4-dihydro-quinolin-3-ylmethyl)-6-morpholin-4-yl-nicotinamide]",9
4,"CC(C)(C)OC(=O)N1CCC(NC(=O)NCc2cn(-c3ccccc3)c3cc(Cl)ccc3c2=O)CC1 [Example I-192, 4-[3-(7-Chloro-4-oxo-1-phenyl-1,4-dihydro-quinolin-3-ylmethyl)-ureido]-piperidine-1-carboxylic acid tert-butyl ester]",60
5,"O=C(NCc1cn(-c2ccccc2)c2cc(Cl)ccc2c1=O)NC1CCN(C(=O)c2ccccc2)CC1 [Example I-194, 1-(1-Benzoyl-piperidin-4-yl)-3-(7-chloro-4-oxo-1-phenyl-1,4-dihydro-quinolin-3-yl-methyl)-urea]",190
6,"O=C(NCc1cn(-c2ccccc2)c2cc(Cl)ccc2c1=O)NC1CCN(C(=O)OCc2ccccc2)CC1 [Example I-195, 4-[3-(7-Chloro-4-oxo-1-phenyl-1,4-dihydro-quinolin-3-ylmethyl)-ureido]-piperidine-1-carboxylic acid benzyl ester]",580
7,"O=C(NCc1cn(-c2ccccc2)c2cc(Cl)ccc2c1=O)NC1CCN(S(=O)(=O)c2ccccc2)CC1 [Example I-196, 1-(7-Chloro-4-oxo-1-phenyl-1,4-dihydro-quinolin-3-ylmethyl)-3-(1-phenylsulfonyl-piperidin-4-yl)-urea]",1100
8,"CS(=O)(=O)N1CCC(NC(=O)NCc2cn(-c3ccccc3)c3cc(Cl)ccc3c2=O)CC1 [Example I-197, 1-(7-Chloro-4-oxo-1-phenyl-1,4-dihydro-quinolin-3-ylmethyl)-3-(1-methanesulfonyl-piperidin-4-yl)-urea]",2100
9,"CC(=O)N1CCC(NC(=O)NCc2cn(-c3ccccc3)c3cc(Cl)ccc3c2=O)CC1 [Example I-198, 1-(1-Acetyl-piperidin-4-yl)-3-(7-chloro-4-oxo-1-phenyl-1,4-dihydro-quinolin-3-ylmethyl)-urea]",2200
10,"CS(=O)(=O)C1CCN(C(=O)N2CCC(NC(=O)NCc3cn(-c4ccccc4)c4cc(Cl)ccc4c3=O)CC2)CC1 [Example I-199, 1-(7-Chloro-4-oxo-1-phenyl-1,4-dihydro-quinolin-3-ylmethyl)-3-[1-(4-methanesulfonyl-piperidine-1-carbonyl)-piperidin-4-yl]-urea]",1600
11,"O=C(NCc1cn(-c2ccccc2)c2cc(Cl)ccc2c1=O)N1CCOCC1 [Example I-200, Morpholine-4-carboxylic acid (7-chloro-4-oxo-1-phenyl-1,4-dihydro-quinolin-3-ylmethyl)-amide]",850
12,"O=C(NCc1cn(-c2ccccc2)c2cc(Cl)ccc2c1=O)Nc1ccccc1 [Example I-201, 1-(7-Chloro-4-oxo-1-phenyl-1,4-dihydro-quinolin-3-ylmethyl)-3-phenyl-urea]",550
13,"CN(C)c1ccc(NC(=O)NCc2cn(-c3ccccc3)c3cc(Cl)ccc3c2=O)cc1 [Example I-202, 1-(7-Chloro-4-oxo-1-phenyl-1,4-dihydro-quinolin-3-ylmethyl)-3-(4-dimethylamino-phenyl)-urea]",630
14,"COc1ccc(NC(=O)NCc2cn(-c3ccccc3)c3cc(Cl)ccc3c2=O)cc1 [Example I-203, 1-(7-Chloro-4-oxo-1-phenyl-1,4-dihydro-quinolin-3-ylmethyl)-3-(4-methoxy-phenyl)-urea]",650
15,"O=C(NCc1cn(-c2ccccc2)c2cc(Cl)ccc2c1=O)Nc1ccc(OC(F)(F)F)cc1 [Example I-205, 1-(4-trifluoromethoxy-phenyl)-3-(7-chloro-4-oxo-1-phenyl-1,4-dihydro-quinolin-3-yl-methyl)-urea]",1800
16,"COC(=O)c1ccc(NC(=O)NCc2cn(-c3ccccc3)c3cc(Cl)ccc3c2=O)cc1 [Example I-206, 4-[3-(7-Chloro-4-oxo-1-phenyl-1,4-dihydro-quinolin-3-ylmethyl)-ureido]-benzoic acid methyl ester]",2700
17,"COC(=O)c1c(CNc2nccc3ccccc23)c(=O)c2ccc(Cl)cc2n1-c1ccccc1 [Example I-207, 7-Chloro-3-(isoquinolin-1-ylaminomethyl)-4-oxo-1-phenyl-1,4-dihydro-quinoline-2-carboxylic acid methyl ester]",110
18,"COC(=O)c1c(CNC(=O)N2CCOCC2)c(=O)c2ccc(Cl)cc2n1-c1ccccc1 [Example I-209, 7-Chloro-3-{[(morpholine-4-carbonyl)-amino]-methyl}-4-oxo-1-phenyl-1,4-dihydro-quinoline-2-carboxylic acid methyl ester]",150
19,"COC(=O)c1c(CN(C)C(=O)c2ccc(S(C)(=O)=O)cc2)c(=O)c2ccc(Cl)cc2n1-c1ccccc1 [Example I-211, 7-Chloro-3-{[(4-methanesulfonyl-benzoyl)-methyl-amino]-methyl}-4-oxo-1-phenyl-1,4-dihydro-quinoline-2-carboxylic acid methyl ester]",920

# Test system: phospho(Ser63)-c-jun in HK-2 cells
# Experiment: Cell-Based Assay for JNK Inhibitors (in-cell ELISA, phospho(Ser63)-c-jun after TNFα)
# Conditions: HK-2 cells (human proximal tubule cells), 60 minutes compound, then 10 ng/mL TNFα for 30 minutes
# Method: Cell-Based Assay for JNK Inhibitors
# The cell-based assay employed the in-cell ELISA method to determine the ability of compounds to prevent the generation of phospho(Ser63)-c-jun in HK-2 cells (human proximal tubule cells) in response to stimulation with tumor necrosis factor α (TNFα). In brief, for quantification of phospho(Ser63)-c-jun, the cells (in 96-well format) were fixed and permeablized then incubated sequentially with a rabbit anti-phospho-c-jun First Antibody specific for the presence of the phospho-Ser63 epitope and a donkey anti-rabbit IgG Second Antibody linked to horseradish peroxidase (HRP) for colorimetric quantitation of binding. […] Blank wells received no TNFα stimulation or compound. Additional Control wells received TNFα stimulation, but no compound.
# Stock cultures of HK-2 cells (ATCC, Manassas, Va.) were grown under a 5% CO2/[…] atmosphere at 37 degrees C. in Keratinocyte-SFM medium (KSFM, Invitrogen, Grand Island, N.Y.) containing 5 μg/L epidermal growth factor and 5 mg/L bovine pituitary extract (both supplied with the medium), additionally supplemented with 10% (v/v) fetal calf serum (FCS; Invitrogen, Grand Island, N.Y.) and 1% (v/v) antibiotic-antimycotic (ABAM: Sigma, St. Louis, Mo.). For assays, cells were seeded in collagen coated 96-well polystyrene plates (BD Biosciences, Franklin Lakes, N.J.) at a density of 40,000 cells/well and cultured for 24 h in the same medium (100 μL/well) followed by a further 16-24 h in 100 μL of similar medium, but without FCS. […] Plates were then allowed to stand at room temperature for 20 minutes before being washed with 200 μL/well of PBS. (Further steps were performed immediately or the plates were stored at 4 degrees C. and the assay completed the next day.) To each well was added 100 μL 1% (v/v) TritonX-100 (Sigma, St. Louis, Mo.) in PBS followed by 20 minutes standing at room temperature, washing with 200 μL/well PBS, the addition of 100 μL/well of Quenching buffer (1% (v/v) hydrogen peroxide (Sigma, St. Louis, Mo.) and 0.1% (w/v) sodium azide (Fisher Scientific, Fair Lawn, N.J.)) in PBS and a further 20 minutes at room temperature. Plates were then washed twice with 200 μL/well of 0.1% (v/v) Tween-20 (Teknova, Hollister, Calif.) in PBS before addition of 200 μL/well of 2% BSA/0.1% Tween-20 in PBS and a further 1 hour at room temperature. […] After a further one hour, rabbit anti-phospho-c-jun-Ser63 is added directly to the solution in the Blank wells resulting in 1:250 dilution of this antibody. Plates were then placed on a slowly rotating platform at 4 degrees C. overnight. Wells were then washed thrice with 200 μL/well PBS/0.1% Tween-20. After addition of the third wash, the plates were placed on a slowly rotating platform for 15 minutes at room temperature. The final PBS/Tween20 wash was then replaced with 100 μL/well of donkey anti-rabbit HRP-labeled Second Antibody (Jackson ImmunoResearch Laboratory, West Grove, Pa.) diluted 1:10,000 in Antibody Dilution Buffer and the plates placed on a slowly rotating platform for 1 hour at room temperature. Wells were then washed four times with 200 μL/well PBS/0.1% Tween-20, including slow rotation for 30 minutes for the third wash and 10 minutes for the final wash. The wells were then washed once with 200 μL PBS without Tween-20. […] Absorbance was determined at a 450 nm wavelength using a spectrophotometer (Molecular Devices SpectraMax 250).
row,Compound,EC50 [nM]
1,"O=C(NCc1cn(-c2ccccc2)c2cc(Cl)ccc2c1=O)c1ccc(N2C[C@@H]3C[C@H]2CN3)nc1 (stereo in doubt) [Example I-89, trifluoroacetate]",31000
2,"O=C(NCc1c(-c2ncco2)n(-c2ccccc2)c2cc(Cl)ccc2c1=O)c1ccn(Cc2ccccc2)c(=O)c1 [Example I-1, 1-Benzyl-2-oxo-1,2-dihydro-pyridine-4-carboxylic acid (7-chloro-2-oxazol-2-yl-4-oxo-1-phenyl-1,4-dihydro-quinolin-3-ylmethyl)-amide]",500
3,"O=C(NCc1c(-c2ncco2)n(-c2ccccc2)c2cc(Cl)ccc2c1=O)c1ccnc(N2CCOCC2)c1 [Example I-2, N-(7-Chloro-2-oxazol-2-yl-4-oxo-1-phenyl-1,4-dihydro-quinolin-3-ylmethyl)-2-morpholin-4-yl-isonicotinamide]",2700
4,"O=C(NCc1c(-c2ncco2)n(-c2ccccc2)c2cc(Cl)ccc2c1=O)c1ccc(N2CCOCC2)nc1 [Example I-3, N-(7-Chloro-2-oxazol-2-yl-4-oxo-1-phenyl-1,4-dihydro-quinolin-3-ylmethyl)-6-morpholin-4-yl-nicotinamide]",3100
5,"O=C(NCc1cn(-c2ccccc2F)c2cc(F)ccc2c1=O)c1cnn(-c2ccccc2)c1 [Example I-103, 1-Phenyl-1H-pyrazole-4-carboxylic acid [7-fluoro-1-(2-fluoro-phenyl)-4-oxo-1,4-dihydro-quinolin-3-ylmethyl]-amide]",12000
6,"COC(=O)c1c(CNC(=O)c2cnc(N3CCOCC3)s2)c(=O)c2ccc(Cl)cc2n1-c1ccccc1 [Example I-116, Chloro-3-{[(2-morpholin-4-yl-thiazole-5-carbonyl)-amino]-methyl}-4-oxo-1-phenyl-1,4-dihydro-quinoline-2-carboxylic acid methyl ester]",2200
